Reference: patent publication US20250017889A1, “INHIBITORS OF P1B-TYPE ATPASES” (THE CURATORS OF THE UNIVERSITY OF MISSOURI, priority 2021, published 2025)

Key:
[1] = target: T1, ATP7B (Homo sapiens, UniProt P35670); test: Microscale thermophoresis (MST) binding to GFP-ATP7B in HEK293 cell lysates; settings: MST analysis; read-out: affinity for ATP7B
T1 construct: expressed in transfected cells; host or cells: HEK293 (detergent-free lysate)
T1 sequence (P35670 1-1465): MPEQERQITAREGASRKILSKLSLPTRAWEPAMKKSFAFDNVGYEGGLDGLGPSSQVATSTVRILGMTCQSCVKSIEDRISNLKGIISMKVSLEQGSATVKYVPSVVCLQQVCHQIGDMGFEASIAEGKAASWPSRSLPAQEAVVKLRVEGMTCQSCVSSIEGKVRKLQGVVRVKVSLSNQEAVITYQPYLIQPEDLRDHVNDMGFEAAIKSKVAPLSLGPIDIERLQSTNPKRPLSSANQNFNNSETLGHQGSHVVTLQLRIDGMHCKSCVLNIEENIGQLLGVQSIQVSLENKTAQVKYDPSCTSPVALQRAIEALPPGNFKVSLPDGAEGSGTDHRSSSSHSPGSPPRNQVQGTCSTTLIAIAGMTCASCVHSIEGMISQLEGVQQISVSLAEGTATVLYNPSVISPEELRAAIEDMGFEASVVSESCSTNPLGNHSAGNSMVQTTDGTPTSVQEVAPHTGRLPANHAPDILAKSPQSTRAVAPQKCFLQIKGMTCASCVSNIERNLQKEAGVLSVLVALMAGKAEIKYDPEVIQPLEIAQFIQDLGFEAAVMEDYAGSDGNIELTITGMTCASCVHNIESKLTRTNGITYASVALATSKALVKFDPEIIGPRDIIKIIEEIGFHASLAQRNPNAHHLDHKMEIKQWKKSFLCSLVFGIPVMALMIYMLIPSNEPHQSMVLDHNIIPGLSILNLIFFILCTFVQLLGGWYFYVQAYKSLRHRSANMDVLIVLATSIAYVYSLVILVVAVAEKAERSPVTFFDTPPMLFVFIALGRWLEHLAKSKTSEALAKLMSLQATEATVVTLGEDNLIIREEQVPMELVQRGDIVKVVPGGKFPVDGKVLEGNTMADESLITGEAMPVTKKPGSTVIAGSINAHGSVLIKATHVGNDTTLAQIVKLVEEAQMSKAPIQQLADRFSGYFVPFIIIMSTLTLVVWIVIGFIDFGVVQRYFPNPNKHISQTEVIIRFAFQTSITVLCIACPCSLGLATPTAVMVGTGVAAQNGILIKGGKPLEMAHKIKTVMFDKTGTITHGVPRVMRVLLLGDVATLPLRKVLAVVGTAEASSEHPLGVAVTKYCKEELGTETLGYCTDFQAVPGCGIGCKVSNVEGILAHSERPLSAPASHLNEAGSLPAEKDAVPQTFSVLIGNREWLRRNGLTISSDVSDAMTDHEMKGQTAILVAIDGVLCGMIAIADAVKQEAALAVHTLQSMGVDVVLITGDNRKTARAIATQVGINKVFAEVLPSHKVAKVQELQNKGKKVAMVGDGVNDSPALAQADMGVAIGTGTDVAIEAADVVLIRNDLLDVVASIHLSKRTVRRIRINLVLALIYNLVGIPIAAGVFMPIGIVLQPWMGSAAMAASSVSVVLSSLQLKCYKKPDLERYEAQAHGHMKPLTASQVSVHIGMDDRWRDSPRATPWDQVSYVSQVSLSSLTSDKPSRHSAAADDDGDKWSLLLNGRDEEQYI
From the text: (§1) Coordinating residues D935 and E798 are predicted to bind copper during transport.

[2] = tested on: GFP alone; test: Microscale thermophoresis (MST), GFP alone as negative control; format: binding
From the text: as §1

[3] = tested on: Cu^S cells complemented with ATP7B; test: Copper toxicity in Cu^S cells complemented with ATP7B; format: cell-based; settings: 10 μM, 50% cytotoxic copper concentration
From the text: 8A illustrates a copper sensitive fibroblast cell line (Cu^S) generated by deleting genes encoding ATP7A, metallothionein-I (MT-I) and metallothionein-II (MT-II). Cu^S cells cannot be propagated in regular medium (DMEM) unless a copper chelator (BCS) is supplied to the medium.
Cu^S cell lines were derived that were complemented by either ATP7A, ATP7B or MT-II.

[4] = target: T2, ATP7B (hATP7B) (Homo sapiens, UniProt P35670); test: Tyrosinase activation in B16 ATP7A^KO cells transfected with human ATP7B; format: cell-based; settings: 10 μM, 24 h, ATP7A^KO melanoma cells
T2 construct: expressed in transfected cells; host or cells: B16 melanoma ATP7A^KO cells (mouse), transient transfection
T2 sequence (P35670 1-1465): T1 sequence (P35670 1-1465)
From the text: Prior studies have shown that exogenously expressed ATP7B can activate tyrosinase in cells lacking ATP7A. For these studies, a B16 melanoma cell model was used in which tyrosinase activity can be detected by in situ oxidation of L-DOPA to DOPAchrome (10A). As shown earlier, B16 cells deleted for the ATP7A gene (ATP7A^KO) completely lack tyrosinase activity (10B). […] Quantification of tyrosinase activity in these cells is shown (10G). Data represent mean±SEM; ****p<0.0001 of three independent replicates.

[5] = tested on: LOX activity; test: LOX activity secreted into conditioned media of cancer cells; format: cell-based; settings: 5 μM, 4 days
[6] = tested on: wild type S. aureus (CopA and CopB); test: Growth of wild type methicillin-resistant Staphylococcus aureus; format: cell-based
Protocol: (§2) Methicillin-resistant Staphylococcus aureus (MRSA) is a human pathogen that expresses two Cu-transporting P1B-type ATPases, CopA and CopB, which are known to enhance the virulence of this bacterium. 19A illustrates CopA and CopB copper exporters at the plasma membrane of S. aureus. […] The growth of the ΔcopA/ΔcopB strain was inhibited by approximately 50% when copper alone (50 μM) was added to the culture medium.
(§3) Wild type MRSA expresses two copper-exporting P1B-type ATPases, CopA and CopB that are required for copper tolerance (FIG. 19A). […] The same experiment was performed using MRSA in which both CopA and CopB genes were deleted (ΔcopA/ΔcopB). Consistent with the known role of CopA and CopB in copper tolerance, the growth of the ΔcopA/ΔcopB strain was inhibited by approximately 50% when copper alone (50 μM) was added to the culture medium (FIG. 19C).

[7] = tested on: ΔcopA/ΔcopB strain of S. aureus; test: Growth of copper-sensitive ΔcopA/ΔcopB mutant strain of S. aureus; format: cell-based, Staphylococcus aureus; settings: MKV3 with copper 50 μM
Protocol: as §2, §3

Q: N#CC(C(=O)Nc1cccc(C(F)(F)F)c1)C(=S)Nc1ccccc1Cl (stereo not shown) [MKV3] was tested. Which Kd [1] did it give?
A: The Kd was 76 nM.

Q: What about the “binding to GFP alone” value [2] of the same compound?
A: Its value is “not to GFP alone”.

Q: And the copper toxicity [3]?
A: The copper toxicity was “enhanced copper toxicity”.

Q: What about the “activation of tyrosinase activity by ATP7B” value [4] of the same compound?
A: The value was “prevented activation of tyrosinase activity”.

Q: And the “LOX activity in conditioned media” value ([5]; 4T1 breast cancer cells)?
A: The value was “reduction in LOX activity”.

Q: And the “LOX activity in conditioned media” value ([5]; LLC lung cancer cells)?
A: Its value is “reduction in LOX activity”.

Q: And the “sensitivity of wild type S. aureus to silver” value [6]?
A: Its value is “increases the sensitivity”.

Q: What about the “growth of wild type S. aureus” value ([6]; MKV3 0.5 μM alone) of the same compound?
A: The value was “not affected”.

Q: What about the “growth of wild type S. aureus” value ([6]; MKV3 0.5 μM and copper 50 μM in combination) of the same compound?
A: The value was “significant inhibition of growth”.

Q: And the “copper sensitivity in the ΔcopA/ΔcopB strain” value [7]?
A: Its value is “did not increase copper sensitivity”.
